Measurements as given in patent US8431541B2, “Alpha-amylase inhibitors: the montbretins and uses thereof” (The University of British Columbia, priority 2007, dated 2013).
One block for each molecule: values may come before it.

How the values were obtained:
[1] = target: T1, human pancreatic α-amylase (HPA) (Homo sapiens, UniProt P04746); assay: Kinetic analysis of HPA inhibition; type: biochemical
T1 sequence (P04746 16-511): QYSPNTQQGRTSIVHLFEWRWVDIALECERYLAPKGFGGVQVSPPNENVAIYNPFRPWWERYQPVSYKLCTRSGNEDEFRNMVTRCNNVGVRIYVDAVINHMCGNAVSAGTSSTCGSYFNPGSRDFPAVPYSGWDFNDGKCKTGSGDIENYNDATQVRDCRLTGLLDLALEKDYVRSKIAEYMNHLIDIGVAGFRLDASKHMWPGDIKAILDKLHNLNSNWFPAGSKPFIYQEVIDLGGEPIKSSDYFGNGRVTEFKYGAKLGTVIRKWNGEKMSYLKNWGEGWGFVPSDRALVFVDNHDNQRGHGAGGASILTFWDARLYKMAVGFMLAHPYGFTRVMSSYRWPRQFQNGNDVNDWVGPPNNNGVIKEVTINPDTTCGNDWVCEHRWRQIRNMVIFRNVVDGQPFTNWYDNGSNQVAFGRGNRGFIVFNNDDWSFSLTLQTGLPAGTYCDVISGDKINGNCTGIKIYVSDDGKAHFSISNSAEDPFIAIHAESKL

[2] = Stability in simulated gastric fluid (SGF) by UPLC; type: in vitro ADME; conditions: positive control, 0.5 mg/ml, 37° C., 1 hour
Description: (§1) The stability of montbretin A in both simulated intestinal fluid (SIF) and simulated gastric fluid (SGF) were analyzed via ultra performance liquid chromatography (UPLC). The instrument consisted of a Waters® Acquity™ UPLC system equipped with a PDA and a TQ detector in tandem. The 2 μL sample injection volume was passed through a Waters® Acquity™ BEH C18 column (1.7 μm, 2.1×100 mm), with mobile phases A and B consisting of water with 0.1% formic acid and acetonitrile with 0.1% formic acid, respectively. The mobile phases were delivered at a programmed linear gradient at a column temperature of 35° C. Linearity was evaluated using a set of montbretin A calibration standards with concentrations ranging from 10 to 100 μg/mL in water. […]
(§2) To examine the gastrointestinal fluid activity, 0.5 mg/ml solutions of oleamide (positive control) in SGF or SIF were prepared by diluting a 100 μL aliquot of oleamide (50 mg/mL in 2-propanol) to 10 mL with either SGF or SIF and incubated in a 37° C. water bath for 1 or 3 hours, respectively. At time points of 1 or 3 hours, the sample was removed from the water bath and a 100 μL aliquot of the resulting solution was diluted to 1 mL with de-ionized water in a glass UPLC glass sample vial and analyzed by UPLC for oleamide content. […]

[3] = Stability in simulated intestinal fluid (SIF) by UPLC; type: in vitro ADME; conditions: positive control, 0.5 mg/ml, 37° C., 3 hours
Description: as §1, §2

[4] = Aqueous solubility (observation)
human salivary α-amylase = target: T2, human salivary α-amylase (Homo sapiens, UniProt P0DUB6); conditions: Lo Piparo et al., J. Med. Chem. 2008; read-out: IC50, inhibition of human salivary α-amylase; cited from earlier work
T2 sequence (P0DUB6 16-511): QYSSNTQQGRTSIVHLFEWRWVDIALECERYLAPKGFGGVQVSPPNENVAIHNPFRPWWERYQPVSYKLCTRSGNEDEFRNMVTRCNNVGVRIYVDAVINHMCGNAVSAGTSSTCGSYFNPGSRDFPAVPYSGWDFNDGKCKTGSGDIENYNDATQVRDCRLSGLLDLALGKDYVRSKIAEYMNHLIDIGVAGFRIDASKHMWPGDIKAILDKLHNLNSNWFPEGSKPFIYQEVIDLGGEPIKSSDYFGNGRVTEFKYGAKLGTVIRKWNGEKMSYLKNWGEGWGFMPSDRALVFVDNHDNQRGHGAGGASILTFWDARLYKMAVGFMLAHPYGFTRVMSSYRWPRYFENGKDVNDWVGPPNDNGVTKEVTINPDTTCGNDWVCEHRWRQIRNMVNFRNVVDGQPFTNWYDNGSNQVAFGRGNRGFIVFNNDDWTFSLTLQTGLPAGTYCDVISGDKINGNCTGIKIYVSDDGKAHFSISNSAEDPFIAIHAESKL

[5] = target: T3, porcine pancreatic α-amylase (Sus scrofa, UniProt P00690); conditions: Taderal et al. 2006; read-out: IC50, inhibition of porcine pancreatic α-amylase; cited from earlier work
T3 sequence (P00690 16-511): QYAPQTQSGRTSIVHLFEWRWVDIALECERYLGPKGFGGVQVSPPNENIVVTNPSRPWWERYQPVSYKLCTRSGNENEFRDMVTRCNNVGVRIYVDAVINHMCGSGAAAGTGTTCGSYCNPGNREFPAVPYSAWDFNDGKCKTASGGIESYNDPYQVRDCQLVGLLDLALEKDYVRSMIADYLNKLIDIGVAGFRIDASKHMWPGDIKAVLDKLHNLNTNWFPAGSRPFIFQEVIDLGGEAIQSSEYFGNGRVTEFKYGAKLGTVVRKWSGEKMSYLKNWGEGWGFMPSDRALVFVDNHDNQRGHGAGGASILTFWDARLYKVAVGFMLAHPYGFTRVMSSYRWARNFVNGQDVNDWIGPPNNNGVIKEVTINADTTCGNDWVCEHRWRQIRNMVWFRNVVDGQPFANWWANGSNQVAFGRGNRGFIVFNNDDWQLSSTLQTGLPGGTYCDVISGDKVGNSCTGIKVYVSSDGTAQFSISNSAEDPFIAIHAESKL

[6] = system: control and STZ-diabetic rats; assay: Acute starch tolerance test; type: in vivo, rat; conditions: STZ-diabetic rats, starch tolerance test; extracts 5 mg/kg
Description: Twenty-four animals were obtained at 200-250 g of body weight and randomly divided into control and diabetic groups. Diabetes was induced by a single intravenous tail vein injection of streptozotocin 60 mg/kg in 0.9% normal saline. Control rats received normal saline injections only. Animals were subsequently divided into acarbose untreated and treated. […] Starch was obtained from Fisher Scientific and a 17.5% suspension was made in distilled water. The dose of starch given was […].
The animals were fasted overnight. A basal blood sample was collected (50 μl volume) and then at 30, 60, 90 and 120 minutes post drug administration. Starch and starch+acarbose was administered by oral gavage. Blood was centrifuged at 10,000 g×25 minutes and plasma collected for determination of glucose levels using a Beckman Glucose Analyzer II™. There was no difference in body weight among the groups. There was a significant increase in plasma glucose 30 and 60 minutes following starch administration in the diabetic untreated group only.
The twenty-four animals from Example 6 were used following a wash out period of one week. Animals were divided into montbretin A untreated and treated. The four treatment groups were: control, n=6, control+montbretin A, n=6, diabetic, n=6 and diabetic+montbretin A, n=6. The procedures used in Example 6 were employed. Montbretin A was dissolved in distilled water at a concentration of 10 mg/ml and given at a volume of 1 ml/kg. The dose of montbretin A given was 10 mg/kg. There was no difference in body weight among the groups. There was a significant increase in plasma glucose levels in the diabetic untreated group at 30 and 60 minutes following starch administration.
A study was done to determine the effect of various amounts of montbretin A and montbretin extracts on plasma glucose levels in response to a starch challenge in STZ-diabetic rats. Diabetic animals used in the previous Examples were used following a wash out period of one week. The six experimental groups were: diabetic (D, n=3) diabetic+montbretin A (5 mg/kg), (DT5, n=3), diabetic+montbretin A (1 mg/kg), (DT1, n=3), diabetic+montbretin A (0.5 mg/kg), (DT0.5, n=3), diabetic+Crocosmia corm methanol extract (5 mg/kg), (DM, n=3) and diabetic+Crocosmia corm ethanol extract (5 mg/kg), (DE, n=2).
Montbretin A was dissolved in distilled water at a concentration of 5, 1 or 0.5 mg/ml and given at a volume of 1 ml/kg. The methanol extract contained montbretin A at a concentration of 3.2 mg/ml and ethanol extract at a concentration of 1.6 mg/ml. These extracts were dried and resuspended in distilled water. There was no difference in body weight among the groups. […] Diarrhea occurred in 2 out 3 animals given the methanol extract and in 1 out of 2 animals given the ethanol extract. […]

[7] = range finder method, Dixon plot, fixed substrate concentration

Molecule: CC1O[C@@H](O[C@@H]2CO[C@@H](Oc3c(O)cc(-c4oc5cc(O)cc(O)c5c(=O)c4O[C@@H]4OC(C)[C@H](O)[C@H](O)C4O[C@@H]4OC(COC(=O)/C=C/c5ccc(O)cc5)[C@@H](O)[C@@H](O)C4O[C@@H]4OC(CO)[C@@H](O)[C@@H](O)C4O)cc3O)C(O)[C@@H]2O)C(O)[C@@H](O)[C@H]1O (some centres unmarked) [Montbretin B, montbretin B]
Ki [1, 7]: 3.6 ± 0.1 µM

Molecule: CCCCCCCC/C=C\CCCCCCCC(N)=O [Oleamide, oleamide, reference compound]
change of concentration after incubation in SGF [2]: significant decrease in concentration | change of concentration after incubation in SIF [3]: significant decrease in concentration

Molecule: O=c1c(O)c(-c2cc(O)c(O)c(O)c2)oc2cc(O)cc(O)c12 [myricetin]
IC50 (human salivary α-amylase): > 9 µM | IC50 [5]: 380 µM | aqueous solubility [4]: limited aqueous solubility

Molecule: montbretin A
occurrence of diarrhea [6]: No diarrhea

The remaining lines, values ahead:

mode of inhibition of HPA ([1]; double reciprocal plot): non-competitive | Ki ([1]; varied substrate and inhibitor concentrations, GraFit): 1300 ± 100 µM | aqueous solubility [4]: limited aqueous solubility
Molecule: CCOC(=O)/C=C/c1ccc(O)c(O)c1 [ethyl caffeiate, reference compound]

Ki [1, 7]: 6.1 ± 0.1 µM
Molecule: montbretin C
